In patent US5030654A, “Glutaramide diuretic agents” (Pfizer Inc., priority 1986, dated 1991):
Read-outs that look alike come from different tables or passages of the source.

Assays:
[1] = molecular target: T1, neutral endopeptidase E.C.3.4.24.11 (Rattus norvegicus, UniProt P07861); test: inhibition of the neutral endopeptidase E.C.3.4.24.11 in vitro; format: biochemical
T1 construct: neutral endopeptidase preparation from rat kidney; from tissue; host or cells: rat kidney
T1 sequence (P07861 1-750): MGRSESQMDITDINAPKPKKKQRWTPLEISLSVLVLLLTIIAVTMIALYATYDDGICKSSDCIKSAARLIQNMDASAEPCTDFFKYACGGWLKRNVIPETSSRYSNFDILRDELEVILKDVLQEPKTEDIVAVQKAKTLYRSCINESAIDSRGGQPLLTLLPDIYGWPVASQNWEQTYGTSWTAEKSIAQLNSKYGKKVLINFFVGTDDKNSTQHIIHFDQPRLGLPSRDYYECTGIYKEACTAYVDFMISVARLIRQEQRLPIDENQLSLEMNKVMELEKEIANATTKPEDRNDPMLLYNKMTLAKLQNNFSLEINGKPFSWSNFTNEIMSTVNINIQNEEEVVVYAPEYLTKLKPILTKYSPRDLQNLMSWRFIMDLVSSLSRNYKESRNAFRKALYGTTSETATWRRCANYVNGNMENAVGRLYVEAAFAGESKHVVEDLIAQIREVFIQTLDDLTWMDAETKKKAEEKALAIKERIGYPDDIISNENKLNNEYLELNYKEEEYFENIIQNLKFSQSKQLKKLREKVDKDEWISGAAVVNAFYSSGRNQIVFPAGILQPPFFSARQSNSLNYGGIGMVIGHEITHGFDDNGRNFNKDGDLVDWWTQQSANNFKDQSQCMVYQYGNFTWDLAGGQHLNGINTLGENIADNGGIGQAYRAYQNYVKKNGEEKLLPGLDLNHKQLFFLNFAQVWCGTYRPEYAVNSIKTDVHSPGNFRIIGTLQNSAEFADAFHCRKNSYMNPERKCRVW
Protocol: Activity against neutral endopeptidase E.C.3.4.24.11 is assessed using a procedure based on the assay described by J. T. Gafford, R. A. Skidgel, E. G. Erdos and L. B. Hersh, Biochemistry, 1983, […], 3265-3271. The method involves determining the concentration of compound required to reduce by 50% the rate of release of radiolabelled hippuric acid from hippuryl-L-phenylalanyl-L-arginine by a neutral endopeptidase preparation from rat kidney.
(§1) The activity of the racemate and separated enantiomers of the cis-4-{1-[2-carboxy-3-(2-methoxyethoxy)propyl]-1-cyclopentanecarboxamido}- 1-cyclohexanecarboxylic acid was assessed by measuring their ability to inhibit the neutral endopeptidase E.C.3.4.24.11 in vitro or to induce natriuresis in mice in vivo following the procedures described herein.
The compounds were assessed for their ability to inhibit the neutral endopeptidase E.C.3.4.24.11 following the procedure described herein.

[2] = test system: male mice (Charles River CDl); test: natriuresis in mice in vivo (saline loaded conscious mice); set-up: species or system mouse; settings: i.v. via tail vein, urine collected for two hours
Protocol: The activity of the compounds as diuretic agents is determined by measuring their ability to increase urine output and sodium ion excretion in saline loaded conscious mice. In this test, male mice (Charles River CDl, 22-28 g) are acclimatised and starved overnight in metabowls. The mice are dosed intravenously via the tail vein, with the test compound dissolved in a volume of saline solution equivalent to 2.5% of body weight. Urine samples are collected each hour for two hours in pre-weighed tubes and analysed for electrolyte concentration. Urine volume and sodium ion concentration from the test animals are compared to a control group which received only saline.
as §1

[3] = neutral endopeptidase E.C.3.4.24.11, rat kidney preparation (Example 454), read-out: IC50
[4] = in vitro, neutral endopeptidase preparation from rat kidney, racemate and enantiomers (Example 445), read-out: IC50 against E.C.3.4.24.11

SMILES | IC50 [1, 3] | Natriuresis in mouse (i.v.) [2] | IC50 [1, 4]
CCCCC1CC(NC(=O)C2(CC(CCOC)C(=O)O)CCCC2)CCC1C(=O)O (centres unmarked) [Example 453, 3-[1-(c-4-Carboxy-c-3-butylcyclohexyl-r-1-carbamoyl)cyclopentyl]-2-(2-methoxyethyl)propanoic acid] | 8 nM |  | 
COCCOCC(CC1(C(=O)N[C@H]2CC[C@@H](C(=O)O)CC2)CCCC1)C(=O)O (mixture of isomers) [(±) R,S, cis-4-{1-[2-carboxy-3-(2-methoxyethoxy)propyl]-1-cyclopentanecarboxamido}-1-cyclohexanecarboxylic acid] |  | active at 3 mg/kg | 48 nM
COCCOC[C@H](CC1(C(=O)N[C@H]2CC[C@@H](C(=O)O)CC2)CCCC1)C(=O)O [(+) S, (S)-cis-4-{1-[2-Carboxy-3-(2-methoxyethoxy)propyl]-1-cyclopentanecarboxamido}-1-cyclohexanecarboxylic acid] |  | active at 1.5 mg/kg | 39 nM
COCCC(CC1(C(=O)N[C@H]2CC[C@@H](C(=O)O)CC2)CCCC1)C(=O)O (relative stereo) [Example 217, 3-{1-[(cis-4-Carboxy-cyclohexyl)carbamoyl]cyclopentyl}-2-(2-methoxyethyl)propanoic acid] | 50 nM |  | 
CCCCC1CC(NC(=O)C2(C[C@@H](COCCOC)C(=O)O)CCCC2)CCC1C(=O)O (single isomer, unassigned; isomer a) [Example 449 isomer A, 3-[1-(c-4-Carboxy-c-3-butylcyclohexyl-r-1-carbamoyl)cyclopentyl]-2S-(2-methoxyethoxymethyl)propanoic acid] | 3.6 nM |  | 
CCCCC1CC(NC(=O)C2(C[C@@H](COCCOC)C(=O)O)CCCC2)CCC1C(=O)O (stereo partly drawn) [Example 451, 3-[1-(c-4-Carboxy-t-3-butyl-r-1-carbamoyl)cyclopentyl]-2S-(2-methoxyethoxymethyl)propanoic acid] | 7.9 nM |  | 
COCCOC[C@@H](CC1(C(=O)N[C@H]2CC[C@@H](C(=O)O)CC2)CCCC1)C(=O)O [(-) R, cis-4-{1-[2-carboxy-3-(2-methoxyethoxy)propyl]-1-cyclopentanecarboxamido}-1-cyclohexanecarboxylic acid] |  | inactive at 3 mg/kg | < 1000 nM
CCCCC1CC(NC(=O)C2(C[C@@H](COCCOC)C(=O)O)CCCC2)CCC1C(=O)O (single isomer, unassigned) [Example 449 isomer B, 3-[1-(c-4-Carboxy-c-3-butylcyclohexyl-r-1-carbamoyl)cyclopentyl]-2S-(2-methoxyethoxymethyl)propanoic acid] | 5.6 nM |  | 
